Experimental data published in patent publication US7198651B2, “Method of effecting a reversible color change of dyed hair” (Kao Corporation, priority 2003, dated 2007).

Experiment: Measurement of pKa value of the dyes (spectrophotometric titration)
Type: physicochemical
Settings: DMF/water (1/1), titration from pH 2 with NaOH, UV-vis inflection point
Method: The pKa values of the dyes can be determined by the following method. The dye is dissolved in a solution of a DMF/water (1/1) volume ratio to a final concentration of 2×10^−5 mol/l. After adjusting the resulting solution to pH 2, using 1.0 mol/l hydrochloric acid, the solution is titrated with aqueous 1.0 mol/l sodium hydroxide solution. Recording the change of the visible ultra-violet absorption spectrum, the inflection point can be determined by regression analysis.

SMILES | pKa
CC(=O)Nc1cc(/N=N/c2nncs2)ccc1O [Dye 1] | 6.0
O=C(Nc1cc(/N=N/c2nc(-c3ccccc3)no2)c2ccccc2c1O)c1ccncc1 [Dye 2] | 5.5
CS(=O)(=O)c1ccc(/N=N/c2ccc(O)c3ccccc23)c(C#N)c1 [Dye 3] | 6.5
CSc1nnc(/N=N/c2ccc(O)c(NC(C)=O)c2)s1 [Dye 5] | 6.1
CC(=O)Nc1cc(/N=N/c2nc3ccccc3s2)ccc1O [Dye 6] | 6.2
Oc1ccc(/N=N/c2nc3ccccc3s2)cc1Cl [Dye 7] | 5.9
CCSc1nnc(N=Nc2ccc(O)c3cccc(NS(C)(=O)=O)c23)s1 [Dye 8] | 4.4
CS(=O)(=O)Nc1cccc2c(O)ccc(N=Nc3nc4ccccc4s3)c12 [Dye 9] | 6.1
CCC(=O)Nc1cc(N=Nc2snc3ccc(S(N)(=O)=O)cc23)cc(Cl)c1O [Dye 12] | 4.0
NS(=O)(=O)c1ccc2nsc(N=Nc3cc(Cl)c(O)cc3Cl)c2c1 [Dye 13] | 4.7
COCCOc1ccc(N=NC2C(=O)N(c3ccccc3)N=C2C(N)=O)cc1S(N)(=O)=O (stereo not drawn) [Dye 21] | 6.4
CCSc1nnc(/N=N/c2c(C(C)(C)C)nn3nc(C)[nH]c23)s1 [Dye 22] | 5.5
N#CC(/N=N/c1ccc(S(N)(=O)=O)cc1)C(=O)c1ccccc1 (stereo not drawn) [Dye 23] | 5.8
Cc1nn2nc(C(C)(C)C)c(/N=N/c3cc(Cl)c(S(N)(=O)=O)cc3Cl)c2[nH]1 [Dye 24] | 5.9
CCSc1nsc(/N=N/c2cc(Cl)c(O)c(NC(=O)CC)c2)n1 [Dye 25, reference compound] | 3.0
CCSc1nsc(/N=N/c2cc(Cl)c(O)cc2Cl)n1 [Dye 26, reference compound] | 3.5

The remaining lines, values ahead:

pKa | SMILES
3.3 | CCC(=O)Nc1cc(/N=N/c2nc(C)ns2)cc(Cl)c1O [Dye 29, reference compound]
3.8 | Cc1nsc(/N=N/c2cc(Cl)c(O)cc2Cl)n1 [Dye 30, reference compound]
5.0 | Cc1nsc(/N=N/c2ccc(O)c(Cl)c2)n1 [Dye 31, reference compound]
5.2 | CC(=O)Nc1cc(N=Nc2nc(C)ns2)ccc1O [Dye 32, reference compound]
4.7 | CCSc1nnc(/N=N/c2c(C(C)(C)C)nn3nc(C(C)C)[nH]c23)s1 [Dye 35, reference compound]
5.2 | CCc1nn2c(-c3ccc(OC)c(NS(C)(=O)=O)c3)n[nH]c2c1/N=N/c1nc(C(C)C)no1 [Dye 36, reference compound]
3.9 | CNS(=O)(=O)c1ccc2nsc(/N=N/c3cc(NC(C)=O)c(O)c(NC(C)=O)c3)c2c1 [Dye 39, reference compound]

Same assay, conditions: DMF/water (1/1 v/v) solution, titration from pH 2 with NaOH, UV-vis inflection point, read-out: pKa

SMILES | pKa
CC(=O)Nc1cc(/N=N/c2ccc(S(C)(=O)=O)cc2C#N)c2ccccc2c1O [Dye 4] | 7
CS(=O)(=O)Nc1cccc2c(O)ccc(/N=N/c3snc4ccc(S(N)(=O)=O)cc34)c12 [Dye 10] | 5

Further lines, results first:

pKa | SMILES
3 | CC(=O)Nc1cc(/N=N/c2snc3ccc(S(N)(=O)=O)cc23)c(Cl)c(Cl)c1O [Dye 27, reference compound]
4.8 | CCC(=O)Nc1cc(/N=N/c2nccs2)cc(Cl)c1O [Dye 28, reference compound]
